The source of these data is patent publication US8183243B2, “Melanocortin receptor agonists” (LG Life Sciences Ltd., priority 2008, dated 2012).

The term EC50 denotes the concentration giving half of the maximal effect.

Like-named read-outs stand apart in the source and are kept apart here.

This experiment addresses T1, MC4R (Homo sapiens, UniProt P32245).
T1 construct: expressed in transfected cells; host or cells: HEK (Human Embryonic Kidney) permanent expression cell line HEK MC4R-Luc, co-expressing CRE-luciferase
In words: MCR agonistic activity (luciferase assay / cAMP accumulation assay) on MC4R. Type of experiment: cell-based. Conditions: HEK cell lines expressing MC4R, not said which. The method, then: Physiological activity of the compounds of the present invention was assessed by measuring agonistic activity as well as binding activity for melanocortin receptors (MCR) according to methods A and B explained as follows.
As one of the methods to measure MCR agonistic activity of the compound according to the present invention, the expression level of a marker gene (for example, luciferase) which increases proportionally according to the increase of cAMP content in the cell, was measured.
First, permanent expression HEK (Human Embryonic Kidney) cell lines (HEK MC1R-Luc, MC3R-Luc, MC4R-Luc or MC5R-Luc) expressing the MCR gene of each subtype together with luciferase gene (CRE-LUC) under the control of CRE (cAMP Response Element) were constructed. The above cell lines were incubated in an incubator with 6% CO2 atmosphere at 37° C. using selection medium, DMEM(Dulbecco's Modified Eagles Medium) containing 10% heat-inactivated fetal bovine serum (Gibco/BRL), 100 unit/ml, penicillin (Gibco/BRL), 100 unit/ml streptomycin (Gibco/BRL), and 200 μg/ml geneticin (G418) (Gibco/BRL). When the cell covered 70% of total surface of the culture dish with 100 mm diameter, the culture dish was rinsed one time with 10 ml Phosphate Buffered Saline(PBS) free of Ca^++ and Mg^++, and then 3 ml PBS solution containing 0.05% trypsin and 0.53 mM EDTA was added thereto. After the trypsin/EDTA solution was removed, the cell lines were incubated in an thermostatic incubator for 1 minute at 37° C., and resuspended in 10 ml selection medium and centrifuged for 5 minutes at 1500 rpm. The supernatant was discarded and the settled cells were resuspended in 5 ml selection medium free of Phenol Red. The resulting cell-suspension was plated onto each well of 96-well culture plates for Luminometer(Costar) with a concentration of 5×10^4 cell in 100 μl culture medium for each well and incubated in the incubator with 6% CO2 atmosphere at 37° C. for 18 hours. With MCR agonists (Example compounds) diluted stepwise using the above culture medium, the cells were treated under the condition of the final DMSO concentration not exceeding 1%, and incubated for 5 hours in the atmosphere of 6% CO2 at 37° C. Then, 50 μl Bright-Glo (Promega) was added to each well. After allowing the treated cells to be at room temperature for 15 minutes, luminescence was measured for each well by using luminometer (Victor). The level of luminescence induced by the stepwise-diluted agonist was converted to relative % value to those by the treatment of 10 nM NDP-MSH. The EC50 indicates the concentration of each agonist for inducing 50% of maximal luminescence by each agonist and this value was measured by a statistical software (Prizm).
B. cAMP Accumulation Assay
As another method to measure MCR agonistic activity of the compound according to the present invention, an increase of cAMP amount in the cell was measured.
First, permanent expression HEK (Human Embryonic Kidney) cell lines (HEK MC1R-Luc, MC3R-Luc, MC4R-Luc or MCSR-Luc) expressing the MCR gene of each subtype were plated onto each well of 24-well culture plates for Luminometer(Costar) with a concentration of 2×10^5 cell in 1 ml culture medium for each well, and then incubated in an incubator with 6% CO2 atmosphere at 37° C. for 24 hours. The medium was removed from each well followed by rinsing with 0.5 ml cold DMEM one time. With MCR agonists (Example compounds) diluted stepwise using 200 μl DMEM including 500 μM IBMX (isobutylmethylxanthine), the cells were treated under the condition of the final DMSO concentration not exceeding 1%, and incubated for 30 minutes in the atmosphere of 6% CO2 at 37° C. Then, the cAMP amount in each cell was measured using Amersham cAMP assay Kit (TRK432).
More specifically, 14.4 μl of 6M PCA (60%) was added to each well, and allowed to be in ice for 10 minutes, and 200 μl sample was taken from each well and transferred to microcentrifuge tube. […]

[1] abbreviates: method A (CRE-luciferase) or B (cAMP accumulation), read-out: EC50 value, agonistic activity to MC4R (range per group of Examples).
The mark [2] stands for this setting: specific activities of representative compounds, method A or B, read-out: EC50.

T1 sequence (P32245 whole entry, species assumed): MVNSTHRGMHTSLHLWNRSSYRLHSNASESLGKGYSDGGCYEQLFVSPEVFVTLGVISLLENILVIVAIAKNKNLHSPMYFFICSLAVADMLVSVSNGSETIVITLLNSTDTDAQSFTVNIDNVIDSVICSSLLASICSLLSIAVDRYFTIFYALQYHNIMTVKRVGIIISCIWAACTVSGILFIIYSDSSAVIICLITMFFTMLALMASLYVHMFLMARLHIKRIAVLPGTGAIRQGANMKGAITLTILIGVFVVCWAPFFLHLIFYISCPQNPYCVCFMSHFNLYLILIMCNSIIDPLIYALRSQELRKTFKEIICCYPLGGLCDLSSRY

Regarding `CN1CCN(C(=O)[C@@H]2C[C@H](N(C(=O)[C@@H]3CCCO3)C3CCC(C)(C)CC3)CN2C(=O)[C@@H]2CN(C(C)(C)C)C[C@H]2c2ccc(F)cc2F)CC1` [Example 14, (2S)-N-{(3S,5S)-1-{[(3S,4R)-1-tert-butyl-4-(2,4-difluorophenyl)pyrrolidin-3-yl]carbonyl}-5-[(4-methylpiperazin-1-yl)carbonyl]pyrrolidin-3-yl}-N-(4,4-dimethylcyclohexyl)tetrahydrofuran-2-carboxamide], the EC50 under setting [1] lay in the range of 0.1 to 10 nM.

As for `CN1CCN(C(=O)[C@@H]2C[C@H](N(C(=O)C(C)(C)CO)C3CCC(C)(C)CC3)CN2C(=O)[C@@H]2CN(C(C)(C)C)C[C@H]2c2ccc(F)cc2F)CC1` [Example 15, N-{(3S,5S)-1-{[(3S,4R)-1-tert-butyl-4-(2,4-difluorophenyl)pyrrolidin-3-yl]carbonyl}-5-[(4-methylpiperazin-1-yl)carbonyl]pyrrolidin-3-yl}-N-(4,4-dimethylcyclohexyl)-3-hydroxy-2,2-dimethylpropanamide], the EC50 under setting [1] was 0.1 to 10 nM.

Consider `CN1CCN(C(=O)[C@@H]2C[C@H](N(C(=O)[C@@H]3CCCO3)[C@H]3CC[C@@H](C)CC3)CN2C(=O)[C@@H]2CN(C(C)(C)C)C[C@H]2c2ccc(Cl)cc2)CC1` [Example 16, (2S)-N-{(3S,5S)-1-{[(3S,4R)-1-tert-butyl-4-(4-chlorophenyl)pyrrolidin-3-yl]carbonyl}-5-[(4-methylpiperazin-1-yl)carbonyl]pyrrolidin-3-yl}-N-(cis-4-methylcyclohexyl)tetrahydrofuran-2-carboxamide], for which the EC50 under setting [1] was in the range of 0.1 to 10 nM and the EC50 under setting [2] was found to be 0.4 nM.

Consider `CN1CCN(C(=O)[C@@H]2C[C@H](N(C(=O)C(C)(C)C)[C@H]3CC[C@@H](C)CC3)CN2C(=O)[C@@H]2CN(C(C)(C)C)C[C@H]2c2ccc(Cl)cc2)CC1` [Example 17, N-{(3S,5S)-1-{[(3S,4R)-1-tert-butyl-4-(4-chlorophenyl)pyrrolidin-3-yl]carbonyl}5-[(4-methylpiperazin-1-yl)carbonyl]pyrrolidin-3-yl}-2,2-dimethyl-N-(cis-4-methylcyclohexyl)propanamide], for which, under setting [1], the EC50 fell in the range of 0.1 to 10 nM.

For the compound `CN1CCN(C(=O)[C@@H]2C[C@H](N(C(=O)C(C)(C)C)[C@H]3CC[C@@H](C)CC3)CN2C(=O)[C@@H]2CN(C(C)(C)C)C[C@H]2c2ccc(F)cc2F)CC1` [Example 18, N-{(3S,5S)-1-{[(3S,4R)-1-tert-butyl-4-(2,4-difluorophenyl)pyrrolidin-3-yl]carbonyl}-5-[(4-methylpiperazin-1-yl)carbonyl]pyrrolidin-3-yl}-2,2-dimethyl-N-(cis-4-methylcyclohexyl)propanamide], the EC50 under setting [1] was 0.1 to 10 nM.

For the compound `CN1CCN(C(=O)[C@@H]2C[C@H](N(C(=O)C(C)(C)CO)[C@H]3CC[C@@H](C)CC3)CN2C(=O)[C@@H]2CN(C(C)(C)C)C[C@H]2c2ccc(Cl)cc2)CC1` [Example 19, N-{(3S,5S)-1-{[(3S,4R)-1-tert-butyl-4-(4-chlorophenyl)pyrrolidin-3-yl]carbonyl}-5-[(4-methylpiperazin-1-yl)carbonyl]pyrrolidin-3-yl}-3-hydroxy-2,2-dimethyl-N-(cis-4-methylcyclohexyl)propanamide], the EC50 under setting [1] lay in the range of 0.1 to 10 nM.

With `CN1CCN(C(=O)[C@@H]2C[C@H](N(C(=O)C(C)(C)CO)[C@H]3CC[C@@H](C)CC3)CN2C(=O)[C@@H]2CN(C(C)(C)C)C[C@H]2c2ccc(F)cc2F)CC1` [Example 20, N-{(3S,5S)-1-{[(3S,4R)-1-tert-butyl-4-(2,4-difluorophenyl)pyrrolidin-3-yl]carbonyl}-5-[(4-methylpiperazin-1-yl)carbonyl]pyrrolidin-3-yl}-3-hydroxy-2,2-dimethyl-N-(cis-4-methylcyclohexyl)propanamide], the EC50 under setting [1] lay within 0.1 to 10 nM.

On to `CN1CCN(C(=O)[C@@H]2C[C@H](N(C(=O)[C@@H]3CCCO3)[C@H]3CC[C@@H](C)CC3)CN2C(=O)[C@@H]2CN(C(C)(C)C)C[C@H]2c2ccc(F)cc2F)CC1` [Example 21, (2S)-N-{(3S,5S)-1-{[(3S,4R)-1-tert-butyl-4-(2,4-difluorophenyl)pyrrolidin-3-yl]carbonyl}-5-[(4-methylpiperazin-1-yl)carbonyl]pyrrolidin-3-yl}-N-(cis-4-methylcyclohexyl)tetrahydrofuran-2-carboxamide], for which, under setting [1], the EC50 is 0.1 to 10 nM.

Regarding `CCN1CCN(C(=O)[C@@H]2C[C@H](N(C(=O)[C@@H]3CCCO3)[C@H]3CC[C@@H](C)CC3)CN2C(=O)[C@@H]2CN(C(C)(C)C)C[C@H]2c2ccc(Cl)cc2)CC1` [Example 22, (2S)-N-{(3S,5S)-1-{[(3S,4R)-1-tert-butyl-4-(4-chlorophenyl)pyrrolidin-3-yl]carbonyl}-5-[(4-ethylpiperazin-1-yl)carbonyl]pyrrolidin-3-yl}-N-(cis-4-methylcyclohexyl)tetrahydrofuran-2-carboxamide], the EC50 under setting [1] is 0.1 to 10 nM.

Turning to `CC(C)N1CCN(C(=O)[C@@H]2C[C@H](N(C(=O)[C@@H]3CCCO3)[C@H]3CC[C@@H](C)CC3)CN2C(=O)[C@@H]2CN(C(C)(C)C)C[C@H]2c2ccc(Cl)cc2)CC1` [Example 23, (2S)-N-{(3S,5S)-1-{[(3S,4R)-1-tert-butyl-4-(4-chlorophenyl)pyrrolidin-3-yl]carbonyl}-5-[(4-isopropylpiperazin-1-yl)carbonyl]pyrrolidin-3-yl}-N-(cis-4-methylcyclohexyl)tetrahydrofuran-2-carboxamide], under setting [1], the EC50 is 0.1 to 10 nM.

As for `CN1CCN(C(=O)[C@@H]2C[C@H](N(C(=O)c3ccoc3)[C@H]3CC[C@@H](C)CC3)CN2C(=O)[C@@H]2CN(C(C)(C)C)C[C@H]2c2ccc(F)cc2F)CC1` [Example 24, N-{(3S,5S)-1-{[(3S,4R)-1-tert-butyl-4-(2,4-difluorophenyl)pyrrolidin-3-yl]carbonyl}-5-[(4-methylpiperazin-1-yl)carbonyl]pyrrolidin-3-yl}-N-(cis-4-methylcyclohexyl)-3-furamide], under setting [1], the EC50 fell in the range of 0.1 to 10 nM.

`CN1CCN(C(=O)[C@@H]2C[C@H](N(C(=O)C(C)(C)C)C3CCC(F)(F)CC3)CN2C(=O)[C@@H]2CN(C(C)(C)C)C[C@H]2c2ccc(Cl)cc2)CC1` [Example 26, N-{(3S,5S)-1-{[(3S,4R)-1-tert-butyl-4-(4-chlorophenyl)pyrrolidine-3-yl]carbonyl}-5-[(4-methylpiperazin-1-yl)carbonyl]pyrrolidin-3-yl}-N-(4,4-difluorocyclohexyl)-2,2-dimethylpropanamide]: the EC50 is, setting by setting: under setting [1], 0.1 to 10 nM; under setting [2], 6 nM.

On to `CCN1CCN(C(=O)[C@@H]2C[C@H](N(C(C)=O)C3CCC(F)(F)CC3)CN2C(=O)[C@@H]2CN(C(C)(C)C)C[C@H]2c2ccc(Cl)cc2)CC1` [Example 28, N-{(3S,5S)-1-{[(3S,4R)-1-tert-butyl-4-(4-chlorophenyl)pyrrolidin-3-yl]carbonyl}5-[(4-ethylpiperazin-1-yl)carbonyl]pyrrolidin-3-yl}-N-(4,4-difluorocyclohexyl)acetamide], for which the EC50 under setting [1] fell in the range of 100 to 1000 nM.

In the case of `CC(=O)N(C1CCC(F)(F)CC1)[C@H]1C[C@@H](C(=O)N2CCN(C(C)C)CC2)N(C(=O)[C@@H]2CN(C(C)(C)C)C[C@H]2c2ccc(Cl)cc2)C1` [Example 29, N-{(3S,5S)-1-{[(3S,4R)-1-tert-butyl-4-(4-chlorophenyl)pyrrolidin-3-yl]carbonyl}5-[(4-isopropylpiperazin-1-yl)carbonyl]pyrrolidin-3-yl}-N-(4,4-difluorocyclohexyl)acetamide], the EC50 under setting [1] was in the range of 100 to 1000 nM.
